Measured values as given in patent US6444670B2 (Wyeth, priority 1998, dated 2002).

Key:
[1] = target: T1, Human recombinant PTP1B (hPTP1B) (Homo sapiens, UniProt P18031); assay type: biochemical
T1 construct: made in house
T1 sequence (P18031 1-435): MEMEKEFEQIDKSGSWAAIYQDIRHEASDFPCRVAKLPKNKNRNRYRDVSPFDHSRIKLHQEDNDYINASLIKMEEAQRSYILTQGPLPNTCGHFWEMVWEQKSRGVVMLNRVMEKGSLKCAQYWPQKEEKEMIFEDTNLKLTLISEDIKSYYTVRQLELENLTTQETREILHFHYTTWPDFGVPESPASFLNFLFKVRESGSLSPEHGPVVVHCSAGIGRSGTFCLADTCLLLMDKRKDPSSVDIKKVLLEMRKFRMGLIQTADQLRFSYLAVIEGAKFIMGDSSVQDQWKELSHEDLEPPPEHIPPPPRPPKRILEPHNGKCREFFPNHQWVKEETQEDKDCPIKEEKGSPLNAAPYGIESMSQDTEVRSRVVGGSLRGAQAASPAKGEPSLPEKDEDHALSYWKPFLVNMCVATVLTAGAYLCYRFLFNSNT

[2] = system: rat hepatic microsomal PTPases; details: 50 μM compound
diabetic (ob/ob) mice = test: Blood glucose lowering in diabetic (ob/ob) mice; assay type: in vivo, mouse; details: plasma glucose, dose 25 mg/Kg, (a) = no significant activity (p < 0.05) at this dose
Text: The procedures used and results obtained are briefly described below.
The non-insulin dependent diabetic (NIDDM) syndrome can be typically characterizes by obesity, hyperglycemia, abnormal insulin secretion, hyperinsulinemia and insulin resistance.
In each test procedure, mice [Male or female ob/ob (C57 B1/6J) and their lean litermates (ob/+ or +/+, Jackson Laboratories) ages 2 to 5 months (10 to 65 g)] of a similar age were randomized according to body weight into 4 groups of 10 mice. The mice were housed 5 per cage and are maintained on normal rodent chow with water ad libitum. Mice received test compound daily by gavage (suspended in 0.5 ml of 0.5% methyl cellulose); dissolved in the drinking water; or admixed in the diet. The dose of compounds given ranges from 2.5 to 200 mg/kg body weight/day. The dose is calculated based on the fed weekly body weight and is expressed as active moiety. […] Control mice received vehicle only.
On the morning of Day 4, 7 or 14 two drops of blood (approximetly 50 ul) were collected into sodium fluoride containing tubes either from the tail vein or after decapitation. For those studies in which the compound was administered daily by gavage the blood samples were collected 0 and 4 hours after compound administration. The plasma was isolated by centrifugation and the concentration of glucose is measured enzymatically on an Abbott V. P. Analyzer.
For each mouse, the percentage change in plasma glucose on Day 4, 7 or 14 is calculated relative to the mean plasma glucose of the vehicle treated mice. Analysis of variance followed by Dunett's Comparison Test (one-tailed) are used to estimate the significant difference between the plasma glucose values from the control group and the individual compound treated groups (CMS SAS Release 5.18).

Compound | melting point | IC50 [1] | % Change from Control [2] | % Change Glucose from Vehicle (diabetic (ob/ob) mice)
Cc1sc2c(Br)c3ccccc3c(-c3ccc(O)c([N+](=O)[O-])c3)c2c1C [Example 20, 4-(9-Bromo-2,3-dimethyl-naphtho[2,3-b]thiophen-4-yl)-2-nitro-phenol] | 183 to 185 °C |  | 2.13% | 
Cc1sc2c(Br)c3ccccc3c(-c3cc(Br)c(O[C@H](C)C(=O)O)c(Br)c3)c2c1C [Example 30, (R)-2-[2,6-Dibromo-4-(9-bromo-2,3-dimethylnaptho[2,3-b]thien-4-yl)-phenoxy]-propanoic acid] | 224 to 225 °C | 869 nM | −60.32% | 
Cc1c(CN2CCOCC2)sc2c(Br)c3ccccc3c(-c3cc(Br)c(O)c(Br)c3)c12 [Example 19, 2,6-Dibromo-4-(9-bromo-3-methyl-2-morpholin-4-ylmethyl-naphtho[2,3-b]thiophen-4-yl)-phenol] | 237 to 240 °C | 697 nM | −30.40% | 

Continued, in another order:

melting point | IC50 [1] | % Change from Control [2] | Compound | % Change Glucose from Vehicle (diabetic (ob/ob) mice)
228 to 231 °C | 204 nM | −81.83% | Cc1sc2c(Br)c3ccccc3c(-c3cc(C(C)C)c(OCC(=O)O)c(C(C)C)c3)c2c1C [Example 53, [4-(9-Bromo-2,3-dimethyl-naphtho[2,3-b]thiophen-4-yl)-2,6-diisopropyl-phenoxy]-acetic acid] | 
172 to 174 °C | 539 nM | −49.80% | Cc1sc2c(Br)c3ccccc3c(-c3cc(Br)c(O)c(Br)c3)c2c1C [Example 9, 2,6-Dibromo-4-(9-bromo-2,3-dimethyl-naphtho[2,3-b]thiophen-4-yl)-phenol] | 
129 to 130 °C | 381 nM | −63.12% | Cc1sc2c(Br)c3ccccc3c(-c3cc(Br)c(O)c([N+](=O)[O-])c3)c2c1C [Example 21, 2-Bromo-4-(9-bromo-2,3-dimethyl-naphtho[2,3-b]thiophen-4-yl)-6-nitro-phenol] | 
167 to 168.5 °C | 83 nM | −44.69% | Cc1sc2c(Br)c3ccccc3c(-c3cc(Br)c(O[C@H](Cc4ccccc4)C(=O)O)c(C4CCCC4)c3)c2c1C [Example 48] | −20.1 ^ %
176 to 177 °C | 49 nM | −63.42% | Cc1sc2c(Br)c3ccccc3c(-c3cc(Br)c(O[C@@H](CCc4ccccc4)C(=O)O)c(Br)c3)c2c1C [Example 31, (S)-2-[2,6-Dibromo-4-(9-bromo-2,3-dimethyl-naphtho[2,3-b]thiophen-4-yl)-phenoxy]-4-phenyl-butyric acid] | 
